Measured values as given in PubChem BioAssay AID330 (DTP/NCI, 2004).
Where “and” joins values, the source holds several entries; their conditions need not be identical. Equal entries are not always repeated. Inconclusive results and toxic doses are left out. Rule for the calls: active = survival T/C of 150% or more; inactive = T/C below 125% in these data.

Test system: P388 leukemia ip, CD2F1 mice, survival T/C
Assay: NCI In Vivo Anticancer Drug Screen. Data for tumor model P388 Leukemia (intraperitoneal) in CD2F1 (CDF1) mice
Details: endpoint: median survival time, higher = longer survival
In short: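 Mice carrying the transplanted tumor received test compound or vehicle. Survival was recorded in each group, and the value is the treated-group measurement divided by that of the vehicle-treated control group.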

[1] = dose: 50.0 mg/kg/injection, schedule: Q01DX005 (ip), vehicle: Klucel (hydroxypropylcellulose) (HPC)
[2] = dose: 100.0 mg/kg/injection, schedule: Q01DX005 (ip), vehicle: Klucel (hydroxypropylcellulose) (HPC)
[3] = dose: 200.0 mg/kg/injection, schedule: Q01DX005 (ip), vehicle: Klucel (hydroxypropylcellulose) (HPC)
[4] = dose: 100.0 mg/kg/injection, schedule: Q04DX003 (ip), vehicle: saline
[5] = dose: 200.0 mg/kg/injection, schedule: Q04DX003 (ip), vehicle: saline
[6] = dose: 400.0 mg/kg/injection, schedule: Q04DX003 (ip), vehicle: saline
[7] = dose: 60.0 mg/kg/injection, schedule: Q01DX005 (ip), vehicle: saline with Tween-80
[8] = dose: 120.0 mg/kg/injection, schedule: Q01DX005 (ip), vehicle: saline with Tween-80
[9] = dose: 240.0 mg/kg/injection, schedule: Q01DX005 (ip), vehicle: saline with Tween-80

Measured: T/C

Cc1nc2ccccc2c(=O)n1-c1ccc(-c2nnc(Sc3nnc(-c4ccc(-n5c(C)nc6ccccc6c5=O)cc4)n3-c3ccccc3)n2-c2ccccc2)cc1
inactive: [1] 102 % of control | [2] 101 % of control | [3] 90 % of control

O=[N+]([O-])c1cc(NC(=S)SCc2ccc3c(c2)OCO3)ccc1Cl
inactive: dose: 50.0 mg/kg/injection, schedule: Q01DX009 (ip), vehicle: suspension in saline 110 % of control | dose: 100.0 mg/kg/injection, schedule: Q01DX009 (ip), vehicle: suspension in saline 114 % of control | dose: 200.0 mg/kg/injection, schedule: Q01DX009 (ip), vehicle: suspension in saline 87 % of control

Cc1nc2n[nH]c(N)c2nc1C
inactive: [4] 100 % of control | [5] 104 % of control | [6] 95 % of control

COc1ccc(-c2n(O)c(C)c(C)[n+]2[O-])cc1
inactive: dose: 12.5 mg/kg/injection, schedule: Q01DX009 (ip), vehicle: saline with Tween-80 101 % of control | dose: 25.0 mg/kg/injection, schedule: Q01DX009 (ip), vehicle: saline with Tween-80 100 % of control | dose: 50.0 mg/kg/injection, schedule: Q01DX009 (ip), vehicle: saline with Tween-80 102 % of control and 92 % of control

CC(C)C(NC(=O)OC(C)(C)C)C(=O)O (stereo unspecified)
inactive: [1] 102 % of control | [2] 104 % of control | [3] 93 % of control

CC(=O)OCC1OC(n2nnc3c(=O)[nH]cnc32)C(OC(C)=O)C(OC(C)=O)C1OC(C)=O (stereo unspecified)
inactive: dose: 100.0 mg/kg/injection, schedule: Q01DX001 (ip), vehicle: saline with Tween-80 96 % of control | dose: 200.0 mg/kg/injection, schedule: Q01DX001 (ip), vehicle: saline with Tween-80 102 % of control | dose: 400.0 mg/kg/injection, schedule: Q01DX001 (ip), vehicle: saline with Tween-80 94 % of control

COc1ccc(C(=O)O)cc1
inactive: dose: 100.0 mg/kg/injection, schedule: Q01DX009 (ip), vehicle: saline with Tween-80 101 % of control | dose: 200.0 mg/kg/injection, schedule: Q01DX009 (ip), vehicle: saline with Tween-80 96 % of control | dose: 400.0 mg/kg/injection, schedule: Q01DX009 (ip), vehicle: saline with Tween-80 109 % of control

O=NNc1ccc(S(=O)(=O)c2ccccc2)cn1
inactive: dose: 3.12 mg/kg/injection, schedule: Q01DX009 (ip), vehicle: sodium bicarbonate 98 % of control | dose: 6.25 mg/kg/injection, schedule: Q01DX009 (ip), vehicle: sodium bicarbonate 98 % of control | dose: 12.5 mg/kg/injection, schedule: Q01DX009 (ip), vehicle: sodium bicarbonate 94 % of control and 96 % of control | dose: 25.0 mg/kg/injection, schedule: Q01DX009 (ip), vehicle: sodium bicarbonate 100 % of control and 104 % of control | dose: 50.0 mg/kg/injection, schedule: Q01DX009 (ip), vehicle: sodium bicarbonate 109 % of control
active: dose: 100.0 mg/kg/injection, schedule: Q01DX009 (ip), vehicle: sodium bicarbonate 160 % of control

CC(C)(C)C(=O)Nc1ccccc1-c1ccccc1
inactive: [4] 93 % of control | [5] 92 % of control | [6] 94 % of control

CC(Cc1ccc(O)cc1)NCC(O)c1cc(O)cc(O)c1 (stereo unspecified)
inactive: dose: 50.0 mg/kg/injection, schedule: Q01DX009 (ip), vehicle: saline 96 % of control | dose: 66.0 mg/kg/injection, schedule: Q01DX009 (ip), vehicle: saline 99 % of control and 87 % of control | dose: 100.0 mg/kg/injection, schedule: Q01DX009 (ip), vehicle: saline 99 % of control and 100 % of control | dose: 150.0 mg/kg/injection, schedule: Q01DX009 (ip), vehicle: saline 91 % of control and 93 % of control | dose: 200.0 mg/kg/injection, schedule: Q01DX009 (ip), vehicle: saline 112 % of control

c1ccc(-c2nc3n(n2)CCC(c2ccccc2)S3)cc1 (stereo unspecified)
inactive: [7] 92 % of control | [8] 89 % of control | [9] 87 % of control

CCN(Cc1cccc(S(=O)(=O)O)c1)c1ccc(C(=C2C=CC(=[N+](CC)Cc3cccc(S(=O)(=O)O)c3)C=C2)c2ccc(O)cc2S(=O)(=O)O)cc1
inactive: [7] 107 % of control | [8] 98 % of control | [9] 107 % of control
